The record followed here is patent publication US20060194969A1, “4-Substituted benzimidazoles and their uses as inhibitors of gastric secretion” (priority 2002, published 2006).

Data set [1] concerns pentagastrin-stimulated acid secretion of the perfused rat stomach. Description: Secretion-inhibiting action on the perfused rat stomach (pentagastrin-stimulated acid secretion, intraduodenal administration in vivo). The note with it: intraduodenal, dose 1 μmol/kg i.d., anesthetized female CD rat. The source says:
Testing of the Secretion-Inhibiting Action on the Perfused Rat Stomach
In Table A which follows, the influence of the compounds according to the invention on the pentagastrin-stimulated acid secretion of the perfused rat stomach after intraduodenal administration in vivo is shown.
The abdomen of anesthetized rats (CD rat, female, 200-250 g; 1.5 g/kg i.m. urethane) was opened after tracheotomy by a median upper abdominal incision and a PVC catheter was fixed transorally in the esophagus and another via the pylorus such that the ends of the tubes just projected into the gastric lumen. The catheter leading form the pylorus led outward into the right abdominal wall through a side opening.
After thorough rinsing (about 50-100 ml), warm (37° C.) physiological NaCl solution was continuously passed through the stomach (0.5 ml/min, pH 6.8-6.9; Braun-Unita I). The pH (pH meter 632, glass electrode EA 147; φ=5 mm, Metrohm) and, by titration with a freshly prepared 0.01 N NaOH solution to pH 7 (Dosimat 665 Metrohm), the secreted HCl were determined in the effluent in each case collected at an interval of 15 minutes.
The gastric secretion was stimulated by continuous infusion of 1 μg/kg (=1.65 ml/h) of i.v. pentagastrin (left femoral vein) about 30 min after the end of the operation (i.e. after determination of 2 preliminary fractions). The substances to be tested were administered intraduodenally in a 2.5 ml/kg liquid volume 60 min after the start of the continuous pentagastrin infusion.
The body temperature of the animals was kept at a constant 37.8-38° C. by infrared irradiation and heat pads (automatic, stepless control by means of a rectal temperature sensor).

`Cc1cccc(C)c1CNc1cc(C(=O)N(C)C)cc2c1nc(C)n2C` [Example 46, 6-(N,N-Dimethylaminocarbonyl)-4-(2,6-dimethyl-benzylamino)-1,2-dimethyl-1H-benzimidazole] came in with a melting point of 142 to 143 °C. For the same compound, the inhibition in vivo at 1 µmol/kg in data set [1] was > 50%.
Compound `CCc1cccc(C)c1CNc1cc(C(=O)N(C)C)cc2c1ncn2C.Cl` [Example 45, 6-(N,N-Dimethylaminocarbonyl)-4-(2-ethyl-6-methyl-benzylamino)-1-methyl-1H-benzimidazole Hydrochloride] registered a melting point of 183 to 184 °C. Further, in data set [1], the inhibition in vivo at 1 µmol/kg is > 50%.
`COCc1nc2c(NCc3c(C)cccc3C)cc(C(=O)N(C)C)cc2n1C` [Example 43, 6-(N,N-Dimethylaminocarbonyl)-4-(2,6-dimethyl-benzylamino)-2-methoxymethyl-1-methyl-1H-benzimidazole] displayed a melting point of 156 to 157 °C. In addition, in data set [1], the inhibition in vivo at 1 µmol/kg is > 50%.
